Data set [1] is described as follows: Body weight of athymic nude mice during topical treatment. Format: in vivo, athymic nude mice (NU/J Foxn1nu). The settings on record: individual mice. The method, then: . The groups are as follows: Group 1-Control (untreated), Group 2-Vehicle control, Group 3-tofacitinib citrate (0.8 mg/Kg), Group 4-tofacitinib citrate (0.08 mg/Kg), Group 5-MJ04 (0.08 mg/Kg), Group 6-MJ04 (0.04 mg/Kg), Group 7-MJ04 (0.016 mg/Kg), Group 8-baricitinib (0.1 mg/Kg), Group 9-baricitinib (0.04 mg/Kg), and Group 10-baricitinib (0.02 mg/Kg). At the end of the experiment, skin samples were collected and preserved in 10% neutral buffered formalin for tissue sectioning and staining using haematoxylin and eosin (H&E). […]

In data set [2] the target is T1, EGFR (Homo sapiens, UniProt P00533).
T1 construct: purchased Promega Corporation V3831
Nature of the data set: Cell-free kinase assay EGFR. Format: biochemical. On the procedure:
(§1) The cell-free kinase assays of small molecules were determined by following the manufacturer-recommended protocols. Different concentrations in triplicate were used to determine the IC50 value of the hit molecules (active molecules). For data analysis, GraphPad Prism V9.5 Software and a sigmoidal dose–response (variable slope) equation were used. Each value represents an average of three replicates per concentration.

Data set [3] addresses T2, GSK-3-β (Homo sapiens, UniProt P49841).
T2 construct: purchased Promega Corporation V1991
Put plainly: Cell-free kinase assay GSK-3-β. Format: biochemical. On the procedure:
as §1

Data set [4] addresses T3, IGF-1R (Homo sapiens, UniProt P08069).
T3 construct: purchased Promega Corporation V3581
Nature of the data set: Cell-free kinase assay IGF-1R. Format: biochemical. The method, then: as §1

Data set [5] has as its target T4, PI-3-K α (Homo sapiens, UniProt P42336).
T4 construct: purchased Promega Corporation V1690
Put plainly: Cell-free kinase assay PI-3-K α. The settings on record: Km ATP. Format: biochemical. On the procedure: as §1

Data set [6] deals with A549. Nature of the data set: MTT cell viability assay A549. Conditions: Homo sapiens, A549, 48 h. Format: cell-based, human. On the procedure: (§2) Cell viability was evaluated using an MTT colorimetric assay. Cells were seeded (10^5 cells/mL) in 96-well plates and allowed to grow overnight at 37 ℃ with 5% CO2 in a cell-culture incubator. On the following day, the cells were treated with small molecules at different concentrations (0.2–10 micro-molar) or vehicle (DMSO). Cells were then further incubated for 48 h.
For orientation: Tetrazolium dyes change colour on reduction, which living cells bring about.

The subject of data set [7] is MCF-7. Nature of the data set: MTT cell viability assay MCF-7. Format: cell-based, human. The settings on record: Homo sapiens, MCF7, 48 h. On the procedure:
as §2

Data set [8] relates to Panc-2. Nature of the data set: MTT cell viability assay Panc-2. Format: cell-based. Conditions: 48 h. The method, then: as §2
Data set [9] can be described thus: Acute dermal toxicity / irritation in C57BL/6 mice. Format: in vivo. The method, then:
The acute dermal toxicity was conducted in Wistar rats to determine the dermal LD50 of MJ04 adhering to Organization for Economic Cooperation and Development (OECD) test guideline 402. A single dose of MJ04 covering 10% of body surface area was administered using a fixed dose procedure from 200 mg/kg to 2000 mg/kg with two animals per dose. The animals were monitored for mortality, morbidity, and clinical signs of toxicity at first 30 min, 6 h, 24 h, and thereafter for 14 days. Parameters like body weight, serum biochemistry (liver function test, kidney function test, and lipid Profile), and histopathology were analysed. The acute dermal irritation test was conducted in C57BL/6J mice at a single dose of 0.04 mg/kg and 0.08 mg/kg of MJ04.
Signal dose acute dermal toxicity tests were conducted in C57BL/6 mice. The tests included limited dosages of a single dose at 0.04 mg/kg and 0.08 mg/kg of MJ04. […] Digital photographs were taken at various time points (0 min, 5 min, 1 h, 4 h, 24 h, and 14 days) from representative areas using a Nikon digital camera (n = 5 mice).

Data set [10] is described as follows: Pharmacokinetic study, dermal application. The settings on record: male, C57BL/6, mouse, topical or ocular; topical dose 30 mg/kg, plasma. Format: in vivo, C57BL/6 mice. On the procedure:
The male C57BL/6 mice were used to study the pharmacokinetics of MJ04. MJ04 was dissolved in vehicle suspensions for dermal application (30 mg/kg). Blood samples were collected at different time points: 0 min, 30 min, 1 h, 2 h, 4 h, 8 h, 12 h, and 24 h after dermal application. Plasma samples were separated by centrifugation of whole blood and stored at less than − 70 °C until bioanalysis. The concentration of MJ04 in plasma was detected using LC–MS/MS (Agilent Technologies, 1260 Infinity system). The pharmacokinetic parameters were processed by DAS (version 3.2.8) software.

The conditions of data set [11]: rat, in vivo.
Data set [12] can be described thus: Acute dermal toxicity (OECD 402) in Wistar rats.

Molecules are shown by their SMILES. Values joined by “and” are separate entries in the source; they are usually repeats but may differ in a detail not shown here. Equal values may be shown once.

T2 sequence (P49841 whole entry): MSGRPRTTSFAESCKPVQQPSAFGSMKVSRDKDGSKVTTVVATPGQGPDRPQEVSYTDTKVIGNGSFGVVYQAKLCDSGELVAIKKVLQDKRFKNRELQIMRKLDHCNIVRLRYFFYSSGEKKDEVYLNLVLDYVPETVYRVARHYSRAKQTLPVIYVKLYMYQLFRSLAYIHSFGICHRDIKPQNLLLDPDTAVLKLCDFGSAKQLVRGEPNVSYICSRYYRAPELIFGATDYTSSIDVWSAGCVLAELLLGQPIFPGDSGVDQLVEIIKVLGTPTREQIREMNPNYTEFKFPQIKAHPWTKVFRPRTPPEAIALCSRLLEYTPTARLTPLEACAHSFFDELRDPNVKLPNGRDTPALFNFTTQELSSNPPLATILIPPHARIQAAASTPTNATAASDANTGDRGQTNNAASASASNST
T3 sequence (P08069 31-1367): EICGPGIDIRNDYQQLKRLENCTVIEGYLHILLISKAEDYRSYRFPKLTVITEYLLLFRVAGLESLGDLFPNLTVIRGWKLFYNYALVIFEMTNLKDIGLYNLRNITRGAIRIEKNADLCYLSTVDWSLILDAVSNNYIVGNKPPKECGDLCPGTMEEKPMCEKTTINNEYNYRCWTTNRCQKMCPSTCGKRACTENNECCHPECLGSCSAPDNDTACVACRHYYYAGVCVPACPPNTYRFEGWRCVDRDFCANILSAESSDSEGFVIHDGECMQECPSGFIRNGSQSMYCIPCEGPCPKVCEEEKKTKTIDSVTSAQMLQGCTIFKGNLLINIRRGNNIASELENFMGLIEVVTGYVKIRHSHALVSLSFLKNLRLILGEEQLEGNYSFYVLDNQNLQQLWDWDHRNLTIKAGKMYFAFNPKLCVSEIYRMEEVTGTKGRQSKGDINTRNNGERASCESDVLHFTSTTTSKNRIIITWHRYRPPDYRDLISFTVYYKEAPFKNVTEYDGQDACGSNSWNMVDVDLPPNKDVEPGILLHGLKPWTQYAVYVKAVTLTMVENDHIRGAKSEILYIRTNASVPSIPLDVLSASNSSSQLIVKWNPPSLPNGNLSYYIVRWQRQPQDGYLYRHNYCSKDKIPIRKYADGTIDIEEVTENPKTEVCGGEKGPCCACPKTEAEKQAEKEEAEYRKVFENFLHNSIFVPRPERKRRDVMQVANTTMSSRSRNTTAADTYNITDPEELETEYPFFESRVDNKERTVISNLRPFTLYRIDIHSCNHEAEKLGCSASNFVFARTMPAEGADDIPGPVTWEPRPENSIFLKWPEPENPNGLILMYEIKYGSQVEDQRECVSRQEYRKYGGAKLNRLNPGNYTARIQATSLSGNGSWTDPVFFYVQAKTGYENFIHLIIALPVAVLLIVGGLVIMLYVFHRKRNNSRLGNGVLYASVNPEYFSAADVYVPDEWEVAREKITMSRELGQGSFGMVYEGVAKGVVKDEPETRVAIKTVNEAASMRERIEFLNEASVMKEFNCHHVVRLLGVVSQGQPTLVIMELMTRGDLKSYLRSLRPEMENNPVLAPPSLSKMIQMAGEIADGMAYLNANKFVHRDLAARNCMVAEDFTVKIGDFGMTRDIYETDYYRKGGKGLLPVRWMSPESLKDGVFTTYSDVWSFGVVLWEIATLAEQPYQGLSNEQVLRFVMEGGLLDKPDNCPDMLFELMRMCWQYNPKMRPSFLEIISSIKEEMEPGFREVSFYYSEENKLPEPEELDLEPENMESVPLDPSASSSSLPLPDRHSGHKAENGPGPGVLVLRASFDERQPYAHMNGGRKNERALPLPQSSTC
T1 sequence (P00533 25-1210): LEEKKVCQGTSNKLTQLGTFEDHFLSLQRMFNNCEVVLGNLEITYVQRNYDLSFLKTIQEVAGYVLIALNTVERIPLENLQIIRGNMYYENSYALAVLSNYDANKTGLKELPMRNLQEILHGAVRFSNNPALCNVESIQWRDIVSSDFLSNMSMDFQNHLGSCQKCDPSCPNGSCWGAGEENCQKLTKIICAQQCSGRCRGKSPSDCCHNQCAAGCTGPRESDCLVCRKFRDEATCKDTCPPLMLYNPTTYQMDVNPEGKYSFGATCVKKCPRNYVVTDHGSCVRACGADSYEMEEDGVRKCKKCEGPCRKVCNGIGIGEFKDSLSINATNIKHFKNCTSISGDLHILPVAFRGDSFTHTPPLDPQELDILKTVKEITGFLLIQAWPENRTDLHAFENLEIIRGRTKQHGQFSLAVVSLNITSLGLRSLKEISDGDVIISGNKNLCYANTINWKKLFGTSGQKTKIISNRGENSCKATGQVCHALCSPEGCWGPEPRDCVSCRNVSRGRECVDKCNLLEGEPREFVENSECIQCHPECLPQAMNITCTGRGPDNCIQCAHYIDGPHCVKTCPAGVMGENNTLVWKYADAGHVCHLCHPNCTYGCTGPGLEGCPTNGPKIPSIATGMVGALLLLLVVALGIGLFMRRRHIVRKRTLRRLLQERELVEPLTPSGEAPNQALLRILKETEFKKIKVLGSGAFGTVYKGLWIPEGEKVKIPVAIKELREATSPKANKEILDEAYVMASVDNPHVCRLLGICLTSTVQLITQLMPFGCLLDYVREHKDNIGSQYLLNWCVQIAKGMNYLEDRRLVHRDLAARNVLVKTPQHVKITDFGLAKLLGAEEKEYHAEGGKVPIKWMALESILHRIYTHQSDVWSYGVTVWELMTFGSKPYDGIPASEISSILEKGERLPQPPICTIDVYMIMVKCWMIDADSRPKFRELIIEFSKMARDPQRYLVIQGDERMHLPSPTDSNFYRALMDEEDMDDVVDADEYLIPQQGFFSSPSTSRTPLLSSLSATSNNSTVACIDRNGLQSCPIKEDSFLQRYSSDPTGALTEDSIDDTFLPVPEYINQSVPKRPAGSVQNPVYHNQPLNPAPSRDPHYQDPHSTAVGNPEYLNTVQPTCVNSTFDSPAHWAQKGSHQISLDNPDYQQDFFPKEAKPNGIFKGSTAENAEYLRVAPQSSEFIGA
T4 sequence (P42336 whole entry): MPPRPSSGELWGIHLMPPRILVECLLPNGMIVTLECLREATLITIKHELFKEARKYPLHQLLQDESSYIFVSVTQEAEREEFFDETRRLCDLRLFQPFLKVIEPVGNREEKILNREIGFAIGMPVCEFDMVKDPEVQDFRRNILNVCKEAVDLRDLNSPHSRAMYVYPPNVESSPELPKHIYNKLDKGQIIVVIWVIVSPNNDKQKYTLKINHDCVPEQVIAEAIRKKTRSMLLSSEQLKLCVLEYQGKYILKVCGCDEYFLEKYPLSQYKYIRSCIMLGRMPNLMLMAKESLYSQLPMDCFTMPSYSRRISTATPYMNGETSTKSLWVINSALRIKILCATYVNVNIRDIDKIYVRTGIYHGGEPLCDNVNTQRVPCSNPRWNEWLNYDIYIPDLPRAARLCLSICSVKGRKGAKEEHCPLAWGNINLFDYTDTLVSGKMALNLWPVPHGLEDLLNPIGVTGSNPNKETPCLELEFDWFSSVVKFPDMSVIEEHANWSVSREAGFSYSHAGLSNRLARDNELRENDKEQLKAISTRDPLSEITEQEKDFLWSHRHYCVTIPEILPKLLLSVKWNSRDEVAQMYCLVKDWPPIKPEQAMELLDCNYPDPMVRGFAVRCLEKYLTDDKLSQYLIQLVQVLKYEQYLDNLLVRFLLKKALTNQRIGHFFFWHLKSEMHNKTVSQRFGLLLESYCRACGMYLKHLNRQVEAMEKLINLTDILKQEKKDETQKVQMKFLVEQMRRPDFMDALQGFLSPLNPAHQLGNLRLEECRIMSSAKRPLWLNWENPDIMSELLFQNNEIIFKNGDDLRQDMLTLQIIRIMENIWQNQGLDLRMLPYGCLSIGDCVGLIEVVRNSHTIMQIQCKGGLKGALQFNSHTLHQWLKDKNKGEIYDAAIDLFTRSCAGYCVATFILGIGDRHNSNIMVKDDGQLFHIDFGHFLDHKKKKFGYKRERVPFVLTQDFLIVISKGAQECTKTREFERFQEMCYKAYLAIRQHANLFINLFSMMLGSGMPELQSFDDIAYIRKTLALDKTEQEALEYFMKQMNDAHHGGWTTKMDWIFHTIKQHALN
T4 sequence (P27986 whole entry partner): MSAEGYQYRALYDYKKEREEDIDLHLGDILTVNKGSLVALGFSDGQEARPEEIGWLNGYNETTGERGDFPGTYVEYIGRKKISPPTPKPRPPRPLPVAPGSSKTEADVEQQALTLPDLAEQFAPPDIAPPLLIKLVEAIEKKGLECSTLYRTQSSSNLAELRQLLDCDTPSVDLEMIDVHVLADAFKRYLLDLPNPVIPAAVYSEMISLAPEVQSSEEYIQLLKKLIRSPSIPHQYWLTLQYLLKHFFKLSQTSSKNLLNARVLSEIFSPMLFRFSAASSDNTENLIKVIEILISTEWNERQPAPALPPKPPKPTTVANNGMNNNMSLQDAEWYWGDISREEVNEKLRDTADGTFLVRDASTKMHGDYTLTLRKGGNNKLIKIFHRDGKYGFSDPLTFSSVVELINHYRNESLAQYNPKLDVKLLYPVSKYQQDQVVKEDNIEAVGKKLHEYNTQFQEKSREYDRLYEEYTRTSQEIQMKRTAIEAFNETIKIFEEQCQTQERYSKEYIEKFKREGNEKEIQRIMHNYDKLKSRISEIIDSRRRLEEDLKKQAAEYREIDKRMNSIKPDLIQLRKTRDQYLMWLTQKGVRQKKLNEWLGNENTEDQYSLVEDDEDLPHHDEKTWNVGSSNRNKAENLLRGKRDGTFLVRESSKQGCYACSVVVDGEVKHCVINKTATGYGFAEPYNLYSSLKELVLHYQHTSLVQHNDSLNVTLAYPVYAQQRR

On to `CCS(=O)(=O)N1CC(CC#N)(n2cc(-c3ncnc4[nH]ccc34)cn2)C1` [Baricitinib, baricitinib, reference compound], for which the “Weight of nude mice (NU/J Foxn1nu)” value in [1] (0.02 mg/kg, DAY 1) was 17.9 and 18.3 and 18.5 and 18.7 and 19.2; in data set [1] (0.02 mg/kg, DAY 7) it was 19.4 and 19.8 and 20.2 and 20.4 and 20.7; in data set [1] (0.02 mg/kg, DAY 14), 21.2 and 21.3 and 21.7 and 22.1 and 22.5; in [1] (0.02 mg/kg, DAY 21) it was 22.6 and 22.8 and 23.2 and 24.2 and 24.4; in data set [1] (0.02 mg/kg, DAY 28), 24.3 and 24.8 and 24.9 and 25.8 and 26.2; in data set [1] (0.04 mg/kg, DAY 1), 17.9 and 18.5 and 18.6 and 18.7 and 19.1. Besides, the “Weight of nude mice (NU/J Foxn1nu)” value was 19.2 and 19.8 and 20.1 (2×) and 20.5 in data set [1] (0.04 mg/kg, DAY 7); 20.8 and 20.9 and 21.4 and 21.5 and 21.8 in [1] (0.04 mg/kg, DAY 14); 22.4 and 22.6 and 23.1 and 23.3 and 23.5 in [1] (0.04 mg/kg, DAY 21); 24.6 and 24.8 and 25.3 and 25.4 and 25.7 in data set [1] (0.04 mg/kg, DAY 28); 18.5 and 18.6 and 18.7 and 19.3 and 18.8 in [1] (0.1 mg/kg, DAY 1); 19.7 and 19.8 and 21.1 and 20.1 and 20.4 in data set [1] (0.1 mg/kg, DAY 7). Also, the “Weight of nude mice (NU/J Foxn1nu)” value in data set [1] (0.1 mg/kg, DAY 14) was 21.3 and 22.9 and 21.8 and 22.1; in data set [1] (0.1 mg/kg, DAY 21), 22.6 and 23.2 and 24.3 and 23.6 and 23.8; in data set [1] (0.1 mg/kg, DAY 28), 25.3 and 24.8 and 25.7 and 25.8 and 25.4.
`Fc1ccc(-c2cnc3[nH]cc(-c4ccnc(NC5CC5)n4)c3c2)cc1` [MJ04]: the “Fold of selectivity vs. JAK3” value in [2] (EGFR) is given as 1609. Besides, in data set [2] (Km ATP), the half-maximal inhibitory concentration (IC50) is 3.27 µM. The “Fold of selectivity vs. JAK3” value in [3] (GSK-3-β) is listed as 908. Moreover, the half-maximal inhibitory concentration (IC50) in [3] (Km ATP) is 1.84 µM. The “Fold of selectivity vs. JAK3” value in data set [4] (IGF-1R) is given as 476. The same molecule came in with a concentration for half-maximal inhibition (IC50) in data set [4] (Km ATP) of 0.967 µM. The concentration for half-maximal inhibition (IC50) in data set [5] is over 10 µM. This molecule also displayed an IC50 in [6] of 3.79 µM. The molecule further registered a half-maximal inhibitory concentration (IC50) in data set [7] of 4.47 µM. The molecule also registered an IC50 in data set [8] of 2.77 µM. The “mortality or clinical signs of toxicity” value in [9] (single dose 0.04 mg/kg) is reported as “no mortality or clinical signs of toxicity”. Moreover, in data set [9] (single dose 0.08 mg/kg, 14 days, 0.08 mg/kg), the “skin irritation/corrosion, mortality or clinical signs of toxicity” value is reported as “no skin irritation/corrosion, mortality or clinical signs of toxicity”. In [10], the highest concentration (Cmax) was 480 nM and the time of peak concentration (Tmax) is 1 h. Moreover, in data set [11] (Wistar, 14 days), the “Globally Harmonized Classification System (GHS) category” value is on record as “Category-5”. Besides, in data set [11] (2000 mg/kg), the ALB came to 4.37 ± 2.09 g/dL, the ALP is on record as 380.33 ± 161.30 U/L, the ALT is on record as 77.33 ± 3.93 U/L and the AST turned out to be 183.63 ± 16.64 U/L. In data set [11] (2000 mg/kg), this molecule displayed a BUN of 13.99 ± 2.92 mg/dL, a CR of 0.71 ± 0.18 mg/dL, a Ca of 11.90 ± 0.36 mg/dL and a GLB of 3.21 ± 0.09. In [11] (2000 mg/kg), this molecule yielded a Glucose of 91.13 ± 17.80 mg/dL, a Na of 145.57 ± 1.71 mM, a P of 4.84 ± 1.10 mg/dL and a TB of 0.11 ± 0.03 mg/dL. In data set [11] (2000 mg/kg), the TG was determined as 75.33 ± 8.33 mg/dL, the TP was determined as 7.05 ± 0.25 g/dL and the Urea turned out to be 36.57 ± 8.43 mg/dL. The “mortality and clinical signs of toxicity” value in [12] (2000 mg/kg body weight, single dermal dose, 14 days) was “no mortality and clinical signs of toxicity”. This molecule had a median lethal dose (LD50) at 14 days in [12] (Wistar, rat, in vivo, topical or ocular) of over 2000 mg/kg.

Broadly, the IC50 is the concentration that gives 50% inhibition. A word on the Cmax: it is the highest concentration seen after dosing. One may read the Tmax as the time from dosing to the highest level. Broadly, the LD50 is the dose at which mortality reaches 50%. The low end stands for greater toxicity, the high end for lower toxicity.

The record behind these values is PMC11025159 (Journal of Translational Medicine, 2024).
